Assay results from ChEMBL document CHEMBL1201862, “PubChem BioAssay data set” (2004).
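Compound exposure: 48 hours, 5 concentrations, 96-well plates. Here, GI50 denotes the concentration required for 50% inhibition of growth.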 The source made the active and inactive calls. Cut-off read from the data, not from the text of the source: active = GI50 up to about 1.1 µM and inactive = higher.

How the values were obtained:
Test in all cases: NCI tumour cell line growth inhibition, 48 h
KM12 = tested on: KM12
UO-31 = tested on: UO-31
NCI-H226 = tested on: NCI-H226
LOX IMVI = tested on: LOX IMVI
HCT-116 = tested on: HCT-116
SR = tested on: SR
NCI-H460 = tested on: NCI-H460
OVCAR-8 = tested on: OVCAR-8
ACHN = tested on: ACHN
SK-OV-3 = tested on: SK-OV-3
NCI-H23 = tested on: NCI-H23
SF-539 = tested on: SF-539
COLO 205 = tested on: COLO 205
HT-29 = tested on: HT-29
K562 = tested on: K562
Malme-3M = tested on: Malme-3M
SF-295 = tested on: SF-295
UACC-257 = tested on: UACC-257

Measured: GI50

COc1ccc(C[C@H](N)C(=O)N2C[C@@H](CO)C[C@@H](n3ccc(=O)[nH]c3=O)C2)cc1
inactive: KM12 > 100 µM | UO-31 > 100 µM | NCI-H226 > 100 µM | LOX IMVI > 100 µM | HCT-116 > 100 µM | SR > 100 µM | NCI-H460 > 100 µM | OVCAR-8 > 100 µM | ACHN > 100 µM | SK-OV-3 > 100 µM | NCI-H23 > 100 µM | SF-539 > 100 µM | COLO 205 > 100 µM | HT-29 > 100 µM | K562 > 100 µM | Malme-3M > 100 µM

O=C(NCCc1ccccc1)C1C(=O)C(=O)N(CCc2ccccc2)C1=O (centres undefined)
inactive: KM12 > 100 µM | UO-31 > 100 µM | NCI-H226 > 100 µM | SF-295 > 100 µM | LOX IMVI > 100 µM | HCT-116 > 100 µM | SR > 100 µM | UACC-257 > 100 µM | ACHN > 100 µM | SK-OV-3 48.4 µM | NCI-H23 > 100 µM | SF-539 > 100 µM | HT-29 > 100 µM | K562 > 100 µM | Malme-3M > 100 µM

NNC(=S)N/N=C(\CCCC(=O)NCCc1ccccc1)CC(=O)c1ccccc1
inactive: KM12 > 100 µM | UO-31 > 100 µM | SF-295 > 100 µM | HCT-116 > 100 µM | SR > 100 µM | UACC-257 > 100 µM | NCI-H460 > 100 µM | OVCAR-8 > 100 µM | ACHN > 100 µM | NCI-H23 > 100 µM | SF-539 > 100 µM | COLO 205 > 100 µM | HT-29 > 100 µM | Malme-3M > 100 µM

Cc1c(C(=O)C/C(=N/NC(=O)CC#N)C(N)=O)[n+]([O-])c2ccccc2[n+]1[O-]
inactive: KM12 28 µM | UO-31 > 100 µM | NCI-H226 > 100 µM | SF-295 > 100 µM | LOX IMVI 34.3 µM | HCT-116 28.1 µM | SR 46.1 µM | UACC-257 35.9 µM | NCI-H460 38.4 µM | OVCAR-8 34.2 µM | ACHN 54 µM | SK-OV-3 > 100 µM | NCI-H23 83.6 µM | SF-539 37.8 µM | COLO 205 34.6 µM | HT-29 78 µM | K562 52.1 µM | Malme-3M 32.3 µM

O=C(c1cccs1)N(C(=S)N1CCN(c2ccccc2)CC1)C1CCCCC1
inactive: KM12 > 100 µM | UO-31 > 100 µM | SF-295 > 100 µM | LOX IMVI > 100 µM | HCT-116 > 100 µM | SR > 100 µM | UACC-257 > 100 µM | NCI-H460 > 100 µM | OVCAR-8 > 100 µM | ACHN > 100 µM | SK-OV-3 > 100 µM | NCI-H23 > 100 µM | SF-539 > 100 µM | COLO 205 > 100 µM | HT-29 > 100 µM | K562 > 100 µM | Malme-3M > 100 µM

O=C(O)CN1CCSc2ccccc2CN(CC(=O)O)CCSc2ccccc2C1
inactive: KM12 > 100 µM | UO-31 > 100 µM | SF-295 > 100 µM | LOX IMVI > 100 µM | HCT-116 > 100 µM | SR 4.61 µM | UACC-257 > 100 µM | NCI-H460 > 100 µM | OVCAR-8 > 100 µM | ACHN > 100 µM | SK-OV-3 > 100 µM | NCI-H23 > 100 µM | SF-539 > 100 µM | COLO 205 > 100 µM | HT-29 > 100 µM | K562 > 100 µM | Malme-3M > 100 µM

CC(=O)O[C@H]1CC[C@@]2(C)C(=CC[C@H]3C4=CC=C(C(C)=O)[C@@]4(C)CCC32)C1 (some centres undefined)
inactive: KM12 19.9 µM | UO-31 43.7 µM | NCI-H226 15 µM | SF-295 41 µM | LOX IMVI 15.5 µM | HCT-116 15.6 µM | SR 19.6 µM | UACC-257 24 µM | NCI-H460 43.7 µM | OVCAR-8 21.8 µM | ACHN 34.1 µM | SK-OV-3 > 100 µM | SF-539 47 µM | COLO 205 13.4 µM | HT-29 34.4 µM | Malme-3M 31.9 µM

O=c1c(C(c2ccc(Cl)cc2)c2c(O)c3ccccc3n(-c3ccccc3)c2=O)c(O)c2ccccc2n1-c1ccccc1
inactive: KM12 68.4 µM | UO-31 22 µM | NCI-H226 73.6 µM | SF-295 14.4 µM | LOX IMVI 18.8 µM | HCT-116 24.8 µM | SR 7.43 µM | OVCAR-8 29.4 µM | ACHN 7.67 µM | SK-OV-3 61.8 µM | NCI-H23 11.1 µM | SF-539 19.1 µM | COLO 205 30.8 µM | K562 40.5 µM | Malme-3M 21.9 µM

CC(=O)N(C)C=C1C(=O)N(C)C(=O)N(C)C1=O
inactive: KM12 > 100 µM | UO-31 > 100 µM | NCI-H226 > 100 µM | SF-295 > 100 µM | LOX IMVI > 100 µM | HCT-116 > 100 µM | SR > 100 µM | UACC-257 > 100 µM | NCI-H460 > 100 µM | OVCAR-8 > 100 µM | ACHN > 100 µM | NCI-H23 > 100 µM | SF-539 > 100 µM | HT-29 > 100 µM | K562 > 100 µM | Malme-3M > 100 µM

O=P(Nc1ccccc1)(Oc1ccccc1)N(CCCl)CCCl (centres undefined)
inactive: KM12 65.8 µM | UO-31 12.4 µM | NCI-H226 > 100 µM | SF-295 69.3 µM | HCT-116 > 100 µM | SR > 100 µM | UACC-257 > 100 µM | OVCAR-8 71.9 µM | ACHN > 100 µM | SK-OV-3 23.1 µM | NCI-H23 > 100 µM | SF-539 > 100 µM | COLO 205 > 100 µM | HT-29 > 100 µM | K562 > 100 µM | Malme-3M > 100 µM

NC(=O)CCCC(NCc1c2ccccc2nc2ccccc12)C(=O)O (centres undefined)
inactive: KM12 29.2 µM | NCI-H226 > 100 µM | SF-295 83.4 µM | LOX IMVI 30.4 µM | HCT-116 > 10 µM | SR 25.9 µM | UACC-257 85.1 µM | NCI-H460 39.5 µM | OVCAR-8 42.7 µM | ACHN 49.8 µM | SK-OV-3 > 100 µM | NCI-H23 53.1 µM | SF-539 32.7 µM | COLO 205 56.4 µM | HT-29 36.2 µM | K562 26.6 µM | Malme-3M 77.1 µM

NC(=O)c1ncn2c1NCC1OC2C(O)C1O (centres undefined)
inactive: KM12 > 100 µM | UO-31 > 100 µM | NCI-H226 > 100 µM | SF-295 > 100 µM | LOX IMVI > 100 µM | HCT-116 > 100 µM | SR > 100 µM | UACC-257 > 100 µM | OVCAR-8 > 100 µM | ACHN > 100 µM | SK-OV-3 > 100 µM | NCI-H23 > 100 µM | SF-539 > 100 µM | COLO 205 > 100 µM | HT-29 > 100 µM | K562 > 100 µM | Malme-3M > 100 µM
